Experimental data reported in patent publication US20250082931A1, “Treating Gastric Cancer Using TTFields Combined with XELOX, FOLFOX or the Individual Constituents Thereof” (Novocure GmbH, priority 2019, published 2025).

Tests used:
KATO III cells [1] = test: Cytotoxic effect by cell count after 72 h, with and without TTFields
Method: (§1) During the treatment the media of all dishes was replaced every 24 h (“hours”).
(§2) After 72 h of treatment the media and the cells were collected, and cytotoxicity was determined by cell counts.
(§3) Cells were seeded on inovitro dishes and petri dishes 24 h before starting the experiments. Media containing the indicated concentration of each chemotherapy component alone or FOLFOX and control media was added to the cells and the dishes were connected to TTFields (as in SOP-BI-009) or grown in 37° C., 5% CO2 for 72 h. Each treatment included 8 repeats (8 dishes). The media was replaced every 24 h. At the end of the experiment the cells were collected, and cytotoxicity was determined by cell counts, small number of cells were seeded for colonies and the cells (including cells from the media) were stained for Annexin V and 7AAD for apoptosis analysis.
(§4) A TTFields generator (Inovitro systems) was used to apply the treatment to the cells.
(§5) Cytotoxic effect: Average and standard deviation of cell number of at least 5 dishes from each treatment was calculated in Excel software. The averages from these repeats was calculated to averages and standard error and is presented as percent from control (no drug treatment) in XY graph of points with error bars using GraphPed software. Significant was determine by 2-way ANOVA followed Multiple comparison using GraphPed software.

KATO III cells [2] = test: Clonogenic effect (colonies count); conditions: for colonies count: 72 h;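 as to all read-outs here: after treatment, KATO III cells were reseeded and grown 6–14 days, then colonies were fixed, stained and counted, expressed as percent of untreated (no drug) control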
Method: (§6) After 72 h of treatment the media and the cells were collected, and cytotoxicity was determined by cell counts. […] For the testing of the clonogenic effect, cells were seeded for colonies.
(§7) After 6-14 days the colonies were fixed, stained and counted to determine clonogenic effect. The overall effect was calculated by multiplying the cytotoxic effect and the clonogenic effect.
(§8) Clonogenic effect: The colonies from each well were counted using ImageJ software. Average and standard deviation of colony number of at least 5 wells from each treatment were calculated in excel software. The averages from these repeats was calculated to averages and standard errors and is presented as percent from control (no drug treatment) in XY graph of points with error bars using GraphPed software. Significant was determine by 2-way ANOVA followed Multiple comparison using GraphPed software.

AGS cells [3] = test: Clonogenic effect (colonies count); assay type: cell-based; conditions: for colonies count: 72 h
Method: as §6, §7, §8

KATO III cells [4] = test: Apoptosis analysis by Annexin V / 7AAD staining; assay type: cell-based; conditions: for AnnV+ 7AAD+ cell fraction / AnnV+ 7AAD− cell fraction / AnnV− 7AAD+ cell fraction / AnnV− 7AAD− cell fraction: 72 h
Method: (§9) After 72 h of treatment the media and the cells were collected, and cytotoxicity was determined by cell counts. Cells (including cells from the media) were stained for Annexin V and 7AAD for apoptosis analysis. For the testing of the clonogenic effect, cells were seeded for colonies.
as §3
(§10) Apoptotic effect: Average of cell fraction of each marker staining (Annexin V and 7AAD) of at least 5 dishes from each treatment was calculated in Excel software. The averages from these repeats was calculated to averages and is presented in stacked bar graph using GraphPed software.

AGS cells [5] = test: Apoptosis analysis by Annexin V / 7AAD staining; assay type: cell-based; conditions: for AnnV+ 7AAD+ cell fraction / AnnV+ 7AAD− cell fraction / AnnV− 7AAD+ cell fraction / AnnV− 7AAD− cell fraction: 72 h
Method: as §9, §3, §10

AGS cells [6] = test: Cytotoxic effect by cell count after 72 h, with and without TTFields
Method: as §1, §2, §3, §4, §5

KATO III cells [7] = test: Overall effect (cytotoxic effect x clonogenic effect); conditions: low concentration
Method: as §7
Overall effect: Each colony number was multiply in the percent of cytotoxic effect of its dish and averages and standard deviations of each treatment were calculated in Excel software. […] Significant was determine by 2-way ANOVA followed Multiple comparison using GraphPed software.

[8] = 50 nM, + TTFields 150 kHz 1.6 V/cm
[9] = 100 nM, + TTFields 150 kHz 1.6 V/cm
[10] = 200 nM, + TTFields 150 kHz 1.6 V/cm
[11] = 400 nM, + TTFields 150 kHz 1.6 V/cm
[12] = FOLFOX experiment, 50 nM, + TTFields 150 kHz 1.6 V/cm
[13] = FOLFOX experiment, 50 nM, no TTFields
[14] = 25 nM, + TTFields 150 kHz 1.0 V/cm
[15] = 50 nM, + TTFields 150 kHz 1.0 V/cm
[16] = 100 nM, + TTFields 150 kHz 1.0 V/cm
[17] = 200 nM, + TTFields 150 kHz 1.0 V/cm
[18] = 400 nM, + TTFields 150 kHz 1.0 V/cm
[19] = FOLFOX experiment, 50 nM, + TTFields 150 kHz 1.0 V/cm
[20] = 25 nuM, + TTFields 150 kHz 1.0 V/cm

Q: Which results are given for `O=C1[O][Pt]2([NH][C@@H]3CCCC[C@H]3[NH]2)[O]C1=O` [Oxaliplatin]?
A: cell count (KATO III cells [1]; [8]): 48 % from control; cell count (KATO III cells [1]; 50 nM, no TTFields): 82 % from control; cell count (KATO III cells [1]; [9]): 46 % from control; cell count (KATO III cells [1]; 100 nM, no TTFields): 75 % from control; cell count (KATO III cells [1]; [10]): 30 % from control; cell count (KATO III cells [1]; 200 nM, no TTFields): 64 % from control; cell count (KATO III cells [1]; [11]): 24 % from control; cell count (KATO III cells [1]; 400 nM, no TTFields): 39 % from control; cell count (KATO III cells [1]; 800 nM, + TTFields 150 kHz 1.6 V/cm): 21 % from control; cell count (KATO III cells [1]; 800 nM, no TTFields): 25 % from control; cell count (KATO III cells [1]; [12]): 51 % from control; cell count (KATO III cells [1]; [13]): 84 % from control; colonies count (KATO III cells [2]; [8]): 46 % from control; colonies count (KATO III cells [2]; 50 nM, no TTFields): 71 % from control; colonies count (KATO III cells [2]; [9]): 54 % from control; colonies count (KATO III cells [2]; 100 nM, no TTFields): 74 % from control; colonies count (KATO III cells [2]; [10]): 42 % from control; colonies count (KATO III cells [2]; 200 nM, no TTFields): 70 % from control; colonies count (KATO III cells [2]; [11]): 17 % from control; colonies count (KATO III cells [2]; 400 nM, no TTFields): 23 % from control; colonies number (clonogenic effect and overall effect), drug + TTFields compared to drug alone (KATO III cells [2]; Two-way ANOVA P<0.001): significant reduction in colonies number; colonies count (AGS cells [3]; [14]): 67 % from control; colonies count (AGS cells [3]; 25 nM, no TTFields): 91 % from control; colonies count (AGS cells [3]; [15]): 70 % from control; colonies count (AGS cells [3]; 50 nM, no TTFields): 92 % from control; colonies count (AGS cells [3]; [16]): 61 % from control; colonies count (AGS cells [3]; 100 nM, no TTFields): 97 % from control; colonies count (AGS cells [3]; [17]): 43 % from control; colonies count (AGS cells [3]; 200 nM, no TTFields): 77 % from control; colonies count (AGS cells [3]; [18]): 18 % from control; colonies count (AGS cells [3]; 400 nM, no TTFields): 36 % from control; colonies count (AGS cells [3]; [19]): 64 % from control; colonies count (AGS cells [3]; [13]): 91 % from control; colonies number (clonogenic effect and overall effect), drug + TTFields compared to drug alone (AGS cells [3]; Two-way ANOVA P<0.001): significant reduction in colonies number; elevation in percent of cells that undergo apoptosis, drug + TTFields compared to drug alone (KATO III cells [4]): higher; AnnV+ 7AAD+ cell fraction (KATO III cells [4]; [8]): 16.12%; AnnV+ 7AAD− cell fraction (KATO III cells [4]; [8]): 16.57%; AnnV− 7AAD+ cell fraction (KATO III cells [4]; [8]): 1.31%; AnnV− 7AAD− cell fraction (KATO III cells [4]; [8]): 66.01%; AnnV+ 7AAD+ cell fraction (KATO III cells [4]; 50 nM, no TTFields): 6.09%; AnnV+ 7AAD− cell fraction (KATO III cells [4]; 50 nM, no TTFields): 11.36%; AnnV− 7AAD+ cell fraction (KATO III cells [4]; 50 nM, no TTFields): 1.30%; AnnV− 7AAD− cell fraction (KATO III cells [4]; 50 nM, no TTFields): 81.25%; AnnV+ 7AAD+ cell fraction (KATO III cells [4]; [9]): 14.83%; AnnV+ 7AAD− cell fraction (KATO III cells [4]; [9]): 19.81%; AnnV− 7AAD+ cell fraction (KATO III cells [4]; [9]): 0.72%; AnnV− 7AAD− cell fraction (KATO III cells [4]; [9]): 64.63%; AnnV+ 7AAD+ cell fraction (KATO III cells [4]; 100 nM, no TTFields): 6.42%; AnnV+ 7AAD− cell fraction (KATO III cells [4]; 100 nM, no TTFields): 10.55%; AnnV− 7AAD+ cell fraction (KATO III cells [4]; 100 nM, no TTFields): 1.32%; AnnV− 7AAD− cell fraction (KATO III cells [4]; 100 nM, no TTFields): 81.71%; AnnV+ 7AAD+ cell fraction (KATO III cells [4]; [10]): 19.97%; AnnV+ 7AAD− cell fraction (KATO III cells [4]; [10]): 22.60%; AnnV− 7AAD+ cell fraction (KATO III cells [4]; [10]): 0.86%; AnnV− 7AAD− cell fraction (KATO III cells [4]; [10]): 56.57%; AnnV+ 7AAD+ cell fraction (KATO III cells [4]; 200 nM, no TTFields): 8.42%; AnnV+ 7AAD− cell fraction (KATO III cells [4]; 200 nM, no TTFields): 11.47%; AnnV− 7AAD+ cell fraction (KATO III cells [4]; 200 nM, no TTFields): 1.01%; AnnV− 7AAD− cell fraction (KATO III cells [4]; 200 nM, no TTFields): 79.10%; AnnV+ 7AAD+ cell fraction (KATO III cells [4]; [11]): 21.45%; AnnV+ 7AAD− cell fraction (KATO III cells [4]; [11]): 25.36%; AnnV− 7AAD+ cell fraction (KATO III cells [4]; [11]): 0.65%; AnnV− 7AAD− cell fraction (KATO III cells [4]; [11]): 52.54%; AnnV+ 7AAD+ cell fraction (KATO III cells [4]; 400 nM, no TTFields): 11.24%; AnnV+ 7AAD− cell fraction (KATO III cells [4]; 400 nM, no TTFields): 12.11%; AnnV− 7AAD+ cell fraction (KATO III cells [4]; 400 nM, no TTFields): 1.42%; AnnV− 7AAD− cell fraction (KATO III cells [4]; 400 nM, no TTFields): 75.23%; AnnV+ 7AAD+ cell fraction (KATO III cells [4]; [12]): 27.60%; AnnV+ 7AAD− cell fraction (KATO III cells [4]; [12]): 15.15%; AnnV− 7AAD+ cell fraction (KATO III cells [4]; [12]): 1.32%; AnnV− 7AAD− cell fraction (KATO III cells [4]; [12]): 55.94%; AnnV+ 7AAD+ cell fraction (KATO III cells [4]; [13]): 18.07%; AnnV+ 7AAD− cell fraction (KATO III cells [4]; [13]): 10.28%; AnnV− 7AAD+ cell fraction (KATO III cells [4]; [13]): 1.12%; AnnV− 7AAD− cell fraction (KATO III cells [4]; [13]): 70.54%; elevation in percent of cells that undergo apoptosis, drug + TTFields compared to drug alone (AGS cells [5]): higher; AnnV+ 7AAD+ cell fraction (AGS cells [5]; 25 nM, no TTFields): 4.00%; AnnV+ 7AAD− cell fraction (AGS cells [5]; 25 nM, no TTFields): 6.55%; AnnV− 7AAD+ cell fraction (AGS cells [5]; 25 nM, no TTFields): 1.35%; AnnV− 7AAD− cell fraction (AGS cells [5]; 25 nM, no TTFields): 88.10%; AnnV+ 7AAD+ cell fraction (AGS cells [5]; [15]): 11.65%; AnnV+ 7AAD− cell fraction (AGS cells [5]; [15]): 8.40%; AnnV− 7AAD+ cell fraction (AGS cells [5]; [15]): 3.10%; AnnV− 7AAD− cell fraction (AGS cells [5]; [15]): 76.90%; AnnV+ 7AAD+ cell fraction (AGS cells [5]; 50 nM, no TTFields): 4.83%; AnnV+ 7AAD− cell fraction (AGS cells [5]; 50 nM, no TTFields): 5.08%; AnnV− 7AAD+ cell fraction (AGS cells [5]; 50 nM, no TTFields): 2.08%; AnnV− 7AAD− cell fraction (AGS cells [5]; 50 nM, no TTFields): 88.00%; AnnV+ 7AAD+ cell fraction (AGS cells [5]; [16]): 12.78%; AnnV+ 7AAD− cell fraction (AGS cells [5]; [16]): 9.78%; AnnV− 7AAD+ cell fraction (AGS cells [5]; [16]): 2.23%; AnnV− 7AAD− cell fraction (AGS cells [5]; [16]): 75.20%; AnnV+ 7AAD+ cell fraction (AGS cells [5]; 100 nM, no TTFields): 7.00%; AnnV+ 7AAD− cell fraction (AGS cells [5]; 100 nM, no TTFields): 6.45%; AnnV− 7AAD+ cell fraction (AGS cells [5]; 100 nM, no TTFields): 1.63%; AnnV− 7AAD− cell fraction (AGS cells [5]; 100 nM, no TTFields): 84.93%; AnnV+ 7AAD+ cell fraction (AGS cells [5]; [17]): 14.54%; AnnV+ 7AAD− cell fraction (AGS cells [5]; [17]): 11.10%; AnnV− 7AAD+ cell fraction (AGS cells [5]; [17]): 3.78%; AnnV− 7AAD− cell fraction (AGS cells [5]; [17]): 70.58%; AnnV+ 7AAD+ cell fraction (AGS cells [5]; [18]): 17.83%; AnnV+ 7AAD− cell fraction (AGS cells [5]; [18]): 11.40%; AnnV− 7AAD+ cell fraction (AGS cells [5]; [18]): 4.50%; AnnV− 7AAD− cell fraction (AGS cells [5]; [18]): 66.23%; AnnV+ 7AAD+ cell fraction (AGS cells [5]; 400 nM, no TTFields): 10.87%; AnnV+ 7AAD− cell fraction (AGS cells [5]; 400 nM, no TTFields): 6.70%; AnnV− 7AAD+ cell fraction (AGS cells [5]; 400 nM, no TTFields): 1.83%; AnnV− 7AAD− cell fraction (AGS cells [5]; 400 nM, no TTFields): 80.60%; AnnV+ 7AAD+ cell fraction (AGS cells [5]; [20]): 9.00%; AnnV+ 7AAD− cell fraction (AGS cells [5]; [20]): 7.65%; AnnV− 7AAD+ cell fraction (AGS cells [5]; [20]): 0.75%; AnnV− 7AAD− cell fraction (AGS cells [5]; [20]): 82.60%; AnnV+ 7AAD+ cell fraction (AGS cells [5]; 200 nuM, no TTFields): 7.64%; AnnV+ 7AAD− cell fraction (AGS cells [5]; 200 nuM, no TTFields): 7.00%; AnnV− 7AAD+ cell fraction (AGS cells [5]; 200 nuM, no TTFields): 1.46%; AnnV− 7AAD− cell fraction (AGS cells [5]; 200 nuM, no TTFields): 83.92%; AnnV+ 7AAD+ cell fraction (AGS cells [5]; [19]): 10.3%; AnnV+ 7AAD− cell fraction (AGS cells [5]; [19]): 7.2%; AnnV− 7AAD+ cell fraction (AGS cells [5]; [19]): 4.4%; AnnV− 7AAD− cell fraction (AGS cells [5]; [19]): 78.2%; AnnV+ 7AAD+ cell fraction (AGS cells [5]; [13]): 4.6%; AnnV+ 7AAD− cell fraction (AGS cells [5]; [13]): 5.1%; AnnV− 7AAD+ cell fraction (AGS cells [5]; [13]): 0.2%; AnnV− 7AAD− cell fraction (AGS cells [5]; [13]): 90.1%; cell count (AGS cells [6]; [14]): 62 % from control; cell count (AGS cells [6]; 25 nM, no TTFields): 88 % from control; cell count (AGS cells [6]; [15]): 43 % from control; cell count (AGS cells [6]; 50 nM, no TTFields): 66 % from control; cell count (AGS cells [6]; [16]): 33 % from control; cell count (AGS cells [6]; 100 nM, no TTFields): 52 % from control; cell count (AGS cells [6]; [17]): 21 % from control; cell count (AGS cells [6]; 200 nM, no TTFields): 39 % from control; cell count (AGS cells [6]; [18]): 8 % from control; cell count (AGS cells [6]; 400 nM, no TTFields): 11 % from control; cell count (AGS cells [6]; [19]): 46 % from control; cell count (AGS cells [6]; [13]): 78 % from control; additional clonogenic and overall effect over TTFields alone (KATO III cells [7]): no additional effect
